Test results published in patent publication US12507703B2, “Methods, devices and compositions for preserving human milk” (The Trustees of Princeton University, priority 2023, dated 2025).
Where “and” joins values, the source holds several entries; their conditions need not be identical. Identical values can stand only once. Where a SMILES comes first, the peptide text is derived from it.

These compounds were tested on lipase (assay: Lipase/lipolysis assay (EnzChek Lipase Substrate, quenched BODIPY-fatty acid conjugate) on stored human milk; also: test concentration or dose not given here).

| Compound | Lipase (RFU) |
| --- | --- |
| O=C1O[C@H]2[C@@H]3OC(=O)c4cc(O)c(O)c(O)c4-c4c(O)c(O)c5oc(=O)c6c(c(O)c(O)c7oc(=O)c4c5c76)-c4c(cc(O)c(O)c4O)C(=O)OC[C@H]3OC(O)[C@@H]2OC(=O)c2cc(O)c(O)c(O)c2-c2c1cc(O)c(O)c2O (mixture of isomers) [Punicalagin] | 646.9241 RFU |
| NC(=O)NCCC[C@H](N)C(=O)O [L-Citrulline] | 1167.04 RFU and 809.9531 RFU |
| O=CC[C@H](O)[C@H](O)CO [Thyminose] | 811.3551 RFU |
| CC/C=C\C/C=C\C/C=C\C/C=C\C/C=C\CCCCCC(=O)O [Docosapentaenoic acid (22n-3)] | 931.501 RFU |
| N[C@@H](Cc1ccc(O)c(I)c1)C(=O)O [H-Tyr(3-I)-OH] | 847.3153 RFU |
| C[C@H](CCC(=O)O)[C@H]1CC[C@H]2[C@@H]3CC[C@@H]4CC(O)CC[C@]4(C)[C@H]3CC(=O)[C@]12C (some centres unmarked) [12-Ketodeoxycholic acid] | 778.2255 RFU |
| CC[C@H]1[C@@H]2C[C@H]3[C@@H]4N(C)c5ccccc5[C@]45C[C@@H]([C@H]2[C@H]5O)N3[C@@H]1O [Ajmaline] | 916.1038 RFU |
| O=C(O)[C@@H](O)[C@H](O)C(=O)O [D-Tartaric Acid] | 685.8128 RFU |
| C[C@@H]1O[C@@H](O[C@H]2[C@H](Oc3c(-c4ccc(O)c(O)c4)oc4cc(O)cc(O)c4c3=O)O[C@H](CO)[C@@H](O)[C@@H]2O)[C@H](O)[C@H](O)[C@H]1O [Quercetin 3-O-neohesperidoside] | 838.5308 RFU |
| C[N+](C)(C)CCO.O=C([O-])C(O)C(O)C(=O)O (centres unmarked) [Choline (bitartrate)] | 1263.191 RFU and 1046.984 RFU |
| CCCCCCCCCCCCCC(=O)O[C@H](CC(=O)[O-])C[N+](C)(C)C [Tetradecanoylcarnitine] | 951.8251 RFU |
| OC[C@H]1O[C@@H](Oc2cc(O)cc(/C=C/c3ccc(O)c(O)c3)c2)[C@H](O)[C@@H](O)[C@@H]1O [Astringin] | 1052.825 RFU |
| CC(C)(O)/C=C/C(=O)[C@](C)(O)[C@H]1[C@H](O)C[C@@]2(C)[C@@H]3CC=C4[C@@H](C[C@H](O)C(=O)C4(C)C)[C@]3(C)C(=O)C[C@]12C [Cucurbitacin D] | 937.0398 RFU |
| Schaftoside | 900.214 RFU |
| C[C@@H]1CCCCCCCCCCCCC(=O)C1 [Muscone] | 696.5228 RFU |
| C[C@H](N)C(=O)NCC(=O)O [L-Alanyl-Glycine] (H-Ala-Gly-OH) | 816.3246 RFU |
| Nc1ccn([C@@H]2O[C@H](COP(=O)([O-])OP(=O)([O-])OP(=O)(O)O)[C@@H](O)[C@H]2O)c(=O)n1.[Na+].[Na+] [Cytidine-5′-triphosphate (disodium)] | 1141.901 RFU |
| CCCCCCCC(=O)O[C@H](CC(=O)[O-])C[N+](C)(C)C [L-Octanoylcarnitine] | 1071.191 RFU |
| CC(C)=CCC[C@](C)(O[C@@H]1O[C@H](CO)[C@@H](O)[C@H](O)[C@H]1O)[C@H]1CC[C@]2(C)[C@@H]1[C@H](O)C[C@@H]1[C@@]3(C)CC[C@H](O[C@@H]4O[C@H](CO)[C@@H](O)[C@H](O)[C@H]4O)C(C)(C)[C@@H]3CC[C@]12C [Ginsenoside F2] | 926.1742 RFU |
| Cc1ccc(C(C)C)cc1O [Carvacrol] | 695.2525 RFU and 1199.593 RFU |
| O=C(O)c1ccc(O)nc1 [6-Hydroxynicotinic acid] | 655.7069 RFU |

| Compound | Lipase (RFU) |
| --- | --- |
| C[C@@]12CCc3occc3[C@H]1CC[C@@]13C[C@@H](CC[C@H]12)[C@@](O)(CO)C3 [Cafestol] | 1003.112 RFU |
| COc1ccc(-c2cc(=O)c3c(OC)c(OC)c(OC)c(OC)c3o2)cc1 [Tangeritin] | 1254.653 RFU |
| O=C(/C=C/c1ccc(O)c(O)c1)O[C@H]1[C@H](O)C[C@](O)(C(=O)O)C[C@H]1OC(=O)/C=C/c1ccc(O)c(O)c1 [3,4-Dicaffeoylquinic acid] | 721.4239 RFU |
| N#CCc1ccc(O)cc1 [4-Hydroxybenzyl cyanide] | 1050.204 RFU |
| CC1(C)C[C@H]2C3=CC[C@@H]4[C@@]5(C)CC[C@H](O)[C@](C)(CO)[C@@H]5CC[C@@]4(C)[C@]3(C)CC[C@@]2(C)[C@H](O)[C@@H]1O [Soyasapogenol A] | 1098.785 RFU |
| OC[C@H]1O[C@@H]2O[C@H]3[C@H](O)[C@@H](O)[C@@H](O[C@H]4[C@H](O)[C@@H](O)[C@@H](O[C@H]5[C@H](O)[C@@H](O)[C@@H](O[C@H]6[C@H](O)[C@@H](O)[C@@H](O[C@H]7[C@H](O)[C@@H](O)[C@@H](O[C@H]8[C@H](O)[C@@H](O)[C@@H](O[C@H]1[C@H](O)[C@H]2O)O[C@@H]8CO)O[C@@H]7CO)O[C@@H]6CO)O[C@@H]5CO)O[C@@H]4CO)O[C@@H]3CO [β-Cyclodextrin] | 886.2621 RFU |
| CC1(C)CCC[C@]2(C)[C@H]3CCO[C@]3(C)CC[C@@H]12 [Ambroxide] | 1042.515 RFU |
| O=C(CO)[C@H](O)[C@H](O)[C@H](O)CO [D-Psicose] | 990.8733 RFU |
| COc1cc(C)ccc1O [Creosol] | 835.9293 RFU and 462.1743 RFU |
| CCCCCCCCCCCCCC(=O)OC[C@@H](O)COP(=O)([O-])OCC[N+](C)(C)C [LysoPC(14:0/0:0)] | 1043.126 RFU |
| CCCCCCCCCC(C)=O [Compound 2-Undecanone, 2-Undecanone] | 1119.854 RFU |
| O=C1O[C@H]([C@H](O)CO)C([O-])=C1O.[Na+] [Sodium erythorbate] | 904.5416 RFU |
| COc1ccc2c(=O)c(-c3ccc(O)cc3)coc2c1 [Isoformononetin] | 1355.098 RFU |
| C[N+](C)(C)CCOP(=O)(O)O [Phosphorylcholine] | 1107.376 RFU |
| CC1(C)CC[C@]2(C(=O)O)CC[C@]3(C)C(=CC[C@@H]4[C@@]5(C)CC[C@H](O[C@@H]6O[C@H](C(=O)O)[C@@H](O)[C@H](O)[C@H]6O)C(C)(C)[C@@H]5CC[C@]43C)[C@@H]2C1 [Calenduloside E] | 1034.138 RFU |
| CCN(Cc1cccc(S(=O)(=O)[O-])c1)c1ccc(C(=C2C=CC(=[N+](CC)Cc3cccc(S(=O)(=O)[O-])c3)C=C2)c2ccccc2S(=O)(=O)[O-])cc1.[Na+].[Na+] [Brilliant Blue FCF] | 652.1115 RFU |
| C[C@H](CCC(=O)O)[C@H]1CC[C@H]2[C@@H]3[C@@H](O)C[C@@H]4C[C@H](O)CC[C@]4(C)[C@H]3C[C@H](O)[C@]12C [Ursocholic acid] | 879.9608 RFU |
| C[N+](C)(C)CCOP(=O)(O)O.[Cl-] [Phosphorylcholine (chloride)] | 831.0181 RFU |
| N[C@@H](CS)C(=O)NCC(=O)O [L-Cysteinyl-Glycine] | 708.9877 RFU |
| CC(C(=O)c1ccc(O)cc1O)c1ccc(O)cc1 (centres unmarked) [O-Desmethylangolensin] | 864.3847 RFU |
